22 molecules from patent publication US20250026721A1, “COMPOUNDS AND METHODS FOR MODULATING RAS-PI3K” (Vividion Therapeutics, Inc., priority 2023, published 2025) can be followed below.

Structures are written as SMILES.

The target in this experiment is T1, PIK3CA (Homo sapiens, UniProt P42336).
T1 construct: endogenous in cells; host or cells: Jurkat cell lysate
As to the kind of experiment: In vitro ELISA target engagement assay for PIK3CA in Jurkat cellular lysate (competition with PIK3CA Biotin Probe). Format: binding. Conditions: 1 hour at rt, then 500 nM PIK3CA Biotin Probe, read-out: Elisa Target Engagement Assay (TE50). The method, then: Example 3. In Vitro ELISA Target Engagement Assay for […] Engagement of compounds on PIK3CA were assessed in Jurkat cellular lysate via a sandwich ELISA. A solution of PIK3CA Biotin Probe was generated at 10 mM and used in the biological testing. […] Treatment Protocol: Jurkat cellular lysate was generated from frozen cell pellets. Cells were thawed on ice and resuspended in cold Dulbecco's phosphate buffered saline (DPBS) (12 mL/300 e^6 cells) then lysed by probe sonication (12×3 second pulses). Jurkat lysate was plated (50 μl/well) in Armadillo 96 well PCR plates (Thermo Fisher catalog number AB2396). The lysate was treated with serial dilutions of test compounds up to 200 μM and incubated for 1 hour at rt. Following compound incubation, PIK3CA Biotin Probe was added to a final concentration of 500 nM, and lysate was mixed by pipetting gently and incubated for an additional 1 hour at rt. The mixture was then diluted in 75 μL Dilution buffer. The mixture was centrifuged for 5 minutes at 4122 g and stored at −80° C. until ELISA TE detection. ELISA TE Detection: Quantification of PIK3CA TE was initiated by coating of the ELISA plate (Thermo Scientific White 384-Well Immuno plates; Thermo Fisher catalog number 460372). The capture antibody was diluted in plating buffer (1:83) and added to the ELISA plate, 20 μl/well, overnight at 4° C. The plate was then washed twice with PBST, 100 μl/well, and blocked with addition of blocking buffer (100 μl/well, 1 hour at rt). During block, treated and probe labeled lysate was thawed. After Block, the block buffer was removed and the thawed lysate was added to the ELISA plate, 30 μl/well, for 1.5 hours at rt. Following lysate incubation, the assay plate was washed 3 times with PBST, 100 μl/well. The Neutravidin-HRP was then diluted (1:500 in dilution buffer) and added for 1 hour at rt, 20 μl/well. Following incubation, the assay plate was washed 4 times with PBST, 100 μl/well, HRP substrate was added to plate, 20 μl/well and luminescence signal was read (Clariostar Plate Reader). For each compound the potency of target engagement (TE50) was determined using Graphpad Prism.

T1 sequence (P42336 whole entry): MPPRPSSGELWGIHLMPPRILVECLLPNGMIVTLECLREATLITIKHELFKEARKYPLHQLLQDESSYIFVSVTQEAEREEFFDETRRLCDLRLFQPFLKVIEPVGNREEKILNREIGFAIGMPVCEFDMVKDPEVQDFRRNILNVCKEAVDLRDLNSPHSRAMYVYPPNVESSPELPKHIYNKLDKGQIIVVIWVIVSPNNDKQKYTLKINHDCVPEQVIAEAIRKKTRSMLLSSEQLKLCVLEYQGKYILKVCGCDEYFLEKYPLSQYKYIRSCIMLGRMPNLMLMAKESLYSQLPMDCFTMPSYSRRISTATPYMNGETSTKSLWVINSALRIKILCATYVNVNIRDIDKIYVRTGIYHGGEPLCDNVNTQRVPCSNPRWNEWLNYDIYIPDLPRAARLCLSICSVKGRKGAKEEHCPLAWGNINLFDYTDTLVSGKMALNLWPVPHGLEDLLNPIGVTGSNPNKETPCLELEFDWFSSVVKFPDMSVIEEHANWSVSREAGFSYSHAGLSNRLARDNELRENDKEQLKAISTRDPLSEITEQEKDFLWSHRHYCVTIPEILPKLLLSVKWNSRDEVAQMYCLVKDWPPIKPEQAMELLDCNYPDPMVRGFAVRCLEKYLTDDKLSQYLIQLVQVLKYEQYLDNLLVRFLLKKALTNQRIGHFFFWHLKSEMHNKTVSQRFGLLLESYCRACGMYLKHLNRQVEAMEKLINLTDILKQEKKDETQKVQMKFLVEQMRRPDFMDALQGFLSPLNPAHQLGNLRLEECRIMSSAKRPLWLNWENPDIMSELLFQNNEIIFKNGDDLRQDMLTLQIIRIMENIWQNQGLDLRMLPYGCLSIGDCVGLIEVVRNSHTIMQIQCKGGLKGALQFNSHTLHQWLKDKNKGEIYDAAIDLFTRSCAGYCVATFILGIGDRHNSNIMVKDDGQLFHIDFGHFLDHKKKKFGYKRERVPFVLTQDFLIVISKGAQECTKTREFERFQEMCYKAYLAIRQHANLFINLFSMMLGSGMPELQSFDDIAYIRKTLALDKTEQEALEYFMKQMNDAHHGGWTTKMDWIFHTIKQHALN
T1 sequence (P27986 whole entry partner): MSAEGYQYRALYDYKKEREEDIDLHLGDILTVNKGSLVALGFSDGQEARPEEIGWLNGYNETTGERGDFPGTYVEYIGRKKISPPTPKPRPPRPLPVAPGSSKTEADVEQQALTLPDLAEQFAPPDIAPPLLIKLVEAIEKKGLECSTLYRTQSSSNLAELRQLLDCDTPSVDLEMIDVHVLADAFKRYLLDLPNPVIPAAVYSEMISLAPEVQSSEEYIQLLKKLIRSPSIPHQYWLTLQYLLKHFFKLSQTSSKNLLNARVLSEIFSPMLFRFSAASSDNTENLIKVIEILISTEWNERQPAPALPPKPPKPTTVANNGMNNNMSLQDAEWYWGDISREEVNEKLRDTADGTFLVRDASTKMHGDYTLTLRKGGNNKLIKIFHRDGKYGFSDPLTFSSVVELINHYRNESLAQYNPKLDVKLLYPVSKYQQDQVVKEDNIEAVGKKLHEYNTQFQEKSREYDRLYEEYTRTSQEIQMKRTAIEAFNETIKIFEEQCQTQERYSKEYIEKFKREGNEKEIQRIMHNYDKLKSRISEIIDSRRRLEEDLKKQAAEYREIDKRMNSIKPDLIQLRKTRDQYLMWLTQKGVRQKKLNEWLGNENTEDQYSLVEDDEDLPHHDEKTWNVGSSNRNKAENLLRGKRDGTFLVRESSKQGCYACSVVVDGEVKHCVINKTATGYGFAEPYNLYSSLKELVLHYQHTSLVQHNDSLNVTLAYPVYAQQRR

For the molecule `O=C(/C=C\CNC(=O)C1(F)CCN(S(=O)(=O)c2ccc(Br)cc2-c2ccccc2Cl)CC1)N1CCC1` [Compound 286, (Z)-N-(4-(azetidin-1-yl)-4-oxobut-2-en-1-yl)-1-((5-bromo-2′-chloro-[1,1′-biphenyl]-2-yl)sulfonyl)-4-fluoropiperidine-4-carboxamide], the IC50 stood at 640 nM. As for `C[C@@H]1C[C@](F)(C(=O)NC/C=C\C(=O)N2CC(F)(F)C2)CCN1C(=O)[C@H]1COC(C)(C)C[C@@H]1c1ccccc1Cl` (single isomer, unassigned) [Compound 293, (2*R,4*S)-1-((3*R,4*S)-4-(2-chlorophenyl)-6,6-dimethyltetrahydro-2H-pyran-3-carbonyl)-N-((Z)-4-(3,3-difluoroazetidin-1-yl)-4-oxobut-2-en-1-yl)-4-fluoro-2-methylpiperidine-4-carboxamide], the IC50 is 820 nM. Take `C[C@@H]1C[C@](F)(C(=O)NC/C=C\C(=O)N2CC(F)(F)C2)CCN1S(=O)(=O)c1ccc(C#N)cc1-c1ccccc1Cl` [Compound 292, (2R,4S)-1-((2′-chloro-5-cyano-[1,1′-biphenyl]-2-yl)sulfonyl)-N-((Z)-4-(3,3-difluoroazetidin-1-yl)-4-oxobut-2-en-1-yl)-4-fluoro-2-methylpiperidine-4-carboxamide]: the IC50 amounted to 160 nM.

With `O=C(NC1C=CS(=O)(=O)C1)C1(F)CCN(S(=O)(=O)c2ccc(Br)cc2-c2ccccc2Cl)CC1` (racemic) [Compound 65, rac-1-((5-bromo-2′-chloro-[1,1′-biphenyl]-2-yl)sulfonyl)-N-(1,1-dioxido-2,3-dihydrothiophen-3-yl)-4-fluoropiperidine-4-carboxamide], the IC50 amounted to 54 nM.

Regarding `Cc1ccccc1-c1cc(Br)ccc1S(=O)(=O)N1CCC(F)(C(=O)N[C@H](C)/C=C\S(C)(=O)=O)CC1` [Compound 49, (R,Z)-1-((5-bromo-2′-methyl-[1,1′-biphenyl]-2-yl)sulfonyl)-4-fluoro-N-(4-(methylsulfonyl)but-3-en-2-yl)piperidine-4-carboxamide], the IC50 came out at 125 nM. On to `C[C@H](/C=C\S(C)(=O)=O)NC(=O)C1(F)CCN(S(=O)(=O)c2ccc(Br)cc2-c2cccc(F)c2Cl)CC1` [Compound 52, (R,Z)-1-((5-bromo-2′-chloro-3′-fluoro-[1,1′-biphenyl]-2-yl)sulfonyl)-4-fluoro-N-(4-(methylsulfonyl)but-3-en-2-yl)piperidine-4-carboxamide], for which the IC50 was 140 nM. On to `C[C@H](/C=C\S(C)(=O)=O)NC(=O)C1(F)CCN(S(=O)(=O)c2ccc(CO)cc2-c2ccccc2Cl)CC1` [Compound 130, (R,Z)-1-((2′-chloro-5-(hydroxymethyl)-[1,1′-biphenyl]-2-yl)sulfonyl)-4-fluoro-N-(4-(methylsulfonyl)but-3-en-2-yl)piperidine-4-carboxamide], for which the IC50 was determined as 470 nM. As to `CCOC(=O)N1C[C@H](C(=O)N2CCC(F)(C(=O)N[C@H](C)/C=C\S(C)(=O)=O)CC2)[C@H](c2ccccc2Cl)C1` [Compound 160, ethyl (3R,4R)-3-(2-chlorophenyl)-4-(4-fluoro-4-(((R,Z)-4-(methylsulfonyl)but-3-en-2-yl)carbamoyl)piperidine-1-carbonyl)pyrrolidine-1-carboxylate], the IC50 was 670 nM. For the molecule `COc1ccc(C(=O)N2CCC[C@](F)(C(=O)N[C@H](C)/C=C\S(C)(=O)=O)CC2)c(-c2ccccc2Cl)c1` [Compound 295, (R)-1-(2′-chloro-5-methoxy-[1,1′-biphenyl]-2-carbonyl)-4-fluoro-N-((R,Z)-4-(methylsulfonyl)but-3-en-2-yl)azepane-4-carboxamide], the IC50 is 350 nM. For `C[C@H](/C=C\S(C)(=O)=O)NC(=O)C1(F)CCN(S(=O)(=O)c2ccc(Br)cc2-c2ccccc2)CC1` [Compound 57, (R,Z)-1-((5-bromo-[1,1′-biphenyl]-2-yl)sulfonyl)-4-fluoro-N-(4-(methylsulfonyl)but-3-en-2-yl)piperidine-4-carboxamide], the IC50 came out at 580 nM. With `C[C@H](/C=C\S(C)(=O)=O)NC(=O)C1(F)CCN(S(=O)(=O)c2cc3sccc3cc2-c2ccccc2Cl)CC1` [Compound 157, (R,Z)-1-((5-(2-chlorophenyl)benzo [b]thiophen-6-yl)sulfonyl)-4-fluoro-N-(4-(methylsulfonyl)but-3-en-2-yl)piperidine-4-carboxamide], the IC50 amounted to 200 nM. As for `C[C@H](/C=C\S(C)(=O)=O)NC(=O)C1(F)CCN(C(=O)[C@H]2CN(C(=O)C(C)(C)C)C[C@H]2c2ccccc2Cl)CC1` [Compound 161, 1-((3R,4R)-4-(2-chlorophenyl)-1-pivaloylpyrrolidine-3-carbonyl)-4-fluoro-N-((R,Z)-4-(methylsulfonyl)but-3-en-2-yl)piperidine-4-carboxamide], the IC50 was 800 nM.

Consider `C[C@@H](NC(=O)C1(F)CCN(S(=O)(=O)c2ccc(C(F)(F)F)cc2-c2ccccc2Cl)CC1)C1=CS(=O)(=O)C1` [Compound 236, (R)-1-((2′-chloro-5-(trifluoromethyl)-[1,1′-biphenyl]-2-yl)sulfonyl)-N-(1-(1,1-dioxido-2H-thiet-3-yl)ethyl)-4-fluoropiperidine-4-carboxamide], for which the IC50 was 390 nM. Consider `COc1ccc(S(=O)(=O)N2CCC[C@@](F)(C(=O)N[C@H](C)/C=C\S(C)(=O)=O)CC2)c(-c2ccccc2Cl)c1` [Compound 313, (S)-1-((2′-chloro-5-methoxy-[1,1′-biphenyl]-2-yl)sulfonyl)-4-fluoro-N-((R,Z)-4-(methylsulfonyl)but-3-en-2-yl)azepane-4-carboxamide], for which the IC50 is 530 nM.

Consider `CS(=O)(=O)C=C1CN(C(=O)C2(F)CCN(S(=O)(=O)c3ccc(Br)cc3-c3ccccc3Cl)CC2)C1` [Compound 273, (1-((5-bromo-2′-chloro-[1,1′-biphenyl]-2-yl)sulfonyl)-4-fluoropiperidin-4-yl)(3-((methylsulfonyl)methylene)azetidin-1-yl)methanone], for which the IC50 was determined as 830 nM. For `CC[C@@H](/C=C\S(C)(=O)=O)NC(=O)C1(F)CCN(S(=O)(=O)c2ccc(Br)cc2-c2ccccc2Cl)CC1` [Compound 82, (S,Z)-1-((5-bromo-2′-chloro-[1,1′-biphenyl]-2-yl)sulfonyl)-4-fluoro-N-(1-(methylsulfonyl)pent-1-en-3-yl)piperidine-4-carboxamide], the IC50 was found to be 198 nM. For the molecule `Cc1c(F)cccc1-c1cc(Br)ccc1S(=O)(=O)N1CCC(F)(C(=O)N[C@H](C)/C=C\S(C)(=O)=O)CC1` [Compound 56, (R,Z)-1-((5-bromo-3′-fluoro-2′-methyl-[1,1′-biphenyl]-2-yl)sulfonyl)-4-fluoro-N-(4-(methylsulfonyl)but-3-en-2-yl)piperidine-4-carboxamide], the IC50 was found to be 150 nM. In the case of `O=C(NCC1=CS(=O)(=O)C1)C1(F)CCN(S(=O)(=O)c2ccc(Br)cc2-c2ccccc2Cl)CC1` [Compound 233, 1-((5-bromo-2′-chloro-[1,1′-biphenyl]-2-yl)sulfonyl)-N-((1,1-dioxido-2H-thiet-3-yl)methyl)-4-fluoropiperidine-4-carboxamide], the IC50 turned out to be 290 nM. As for `O=C(/C=C/CNC(=O)C1(F)CCN(S(=O)(=O)c2ccc(C(F)(F)F)cc2-c2ccccc2Cl)CC1)N1CC(F)(F)C1` [Compound 283, (E)-1-((2′-chloro-5-(trifluoromethyl)-[1,1′-biphenyl]-2-yl)sulfonyl)-N-(4-(3,3-difluoroazetidin-1-yl)-4-oxobut-2-en-1-yl)-4-fluoropiperidine-4-carboxamide], the figure is 200 nM; as for `N#C/C=C/CNC(=O)C1(F)CCN(S(=O)(=O)c2cnc(Cl)cc2-c2ccccc2Cl)CC1` [Compound 232, (E)-1-((6-chloro-4-(2-chlorophenyl)pyridin-3-yl)sulfonyl)-N-(3-cyanoallyl)-4-fluoropiperidine-4-carboxamide], 520 nM; as for `COC1(C(=O)N[C@H](C)/C=C\S(C)(=O)=O)CCN(S(=O)(=O)c2ccc(C(F)(F)F)cc2-c2ccccc2Cl)CC1` [Compound 139, (R,Z)-1-((2′-chloro-5-(trifluoromethyl)-[1,1′-biphenyl]-2-yl)sulfonyl)-4-methoxy-N-(4-(methylsulfonyl)but-3-en-2-yl)piperidine-4-carboxamide], 330 nM. `CCOCc1cccc(-c2cc(Cl)ccc2S(=O)(=O)N2CCC(F)(C(=O)N[C@@H](C)/C=C\S(C)(=O)=O)CC2)c1` [Compound 17, (S,Z)-1-((5-chloro-3′-(ethoxymethyl)-[1,1′-biphenyl]-2-yl)sulfonyl)-4-fluoro-N-(4-(methylsulfonyl)but-3-en-2-yl)piperidine-4-carboxamide]: the IC50 worked out at 760 nM.
